Columns and labels:
[1] = target: Dual specificity tyrosine-phosphorylation-regulated kinase 1A (Homo sapiens, UniProt Q13627); assay: Inhibition of human recombinant GST-fusion DYRK1A expressed in Escherichia coli
[2] = target: Cyclin-dependent kinase 5/CDK5 activator 1 (Homo sapiens, UniProt Q00535); assay: Inhibition of human recombinant CDK5/P25 by scintillation counting; assay type: protein-complex assay
[3] = target: Glycogen synthase kinase-3 (Sus scrofa, UniProt B2LUN4+I6LNT8); assay: Inhibition of pig GSK3alpha/beta

Chain of Cyclin-dependent kinase 5/CDK5 activator 1 (Q00535 whole entry): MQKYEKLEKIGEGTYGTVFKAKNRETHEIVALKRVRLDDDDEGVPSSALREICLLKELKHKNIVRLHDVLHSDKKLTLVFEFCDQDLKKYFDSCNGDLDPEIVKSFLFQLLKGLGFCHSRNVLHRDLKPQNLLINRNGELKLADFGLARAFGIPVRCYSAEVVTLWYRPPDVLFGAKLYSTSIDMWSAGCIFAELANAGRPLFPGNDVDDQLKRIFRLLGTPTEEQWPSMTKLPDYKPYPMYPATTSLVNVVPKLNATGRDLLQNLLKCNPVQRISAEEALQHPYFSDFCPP
Chain of Cyclin-dependent kinase 5/CDK5 activator 1 (Q15078 whole entry, further chain): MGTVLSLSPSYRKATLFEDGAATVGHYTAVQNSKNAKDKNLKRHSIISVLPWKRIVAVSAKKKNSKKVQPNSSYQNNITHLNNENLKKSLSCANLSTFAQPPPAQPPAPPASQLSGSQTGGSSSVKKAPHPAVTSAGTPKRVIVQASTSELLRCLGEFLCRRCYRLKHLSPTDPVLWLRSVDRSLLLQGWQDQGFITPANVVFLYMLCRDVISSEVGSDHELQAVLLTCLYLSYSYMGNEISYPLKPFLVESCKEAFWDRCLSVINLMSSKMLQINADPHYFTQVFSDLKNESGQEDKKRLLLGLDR

| IC50 [1] [µM] | IC50 [2] [µM] | IC50 [3] [µM] | SMILES |
| --- | --- | --- | --- |
| > 10 | > 10 | > 10 | CC(=O)Nc1nn(C)c2nc(N)c(C#N)c(-c3ccccc3)c12 |
| > 10 | > 10 | > 10 | Cn1nc(N)c2c(-c3ccccc3)c(C#N)c(N)nc21 |
| > 10 | > 10 | > 10 | COc1nc(NNC(C)=O)c(C#N)c(-c2ccccc2)c1C#N |
| > 10 | > 10 | > 10 | N#Cc1c(N2CCOCC2)nc2[nH]nc(N)c2c1-c1ccccc1 |
| > 10 | > 10 | > 10 | N#Cc1c(Cl)nc2[nH]nc(N)c2c1-c1ccccc1 |
| > 10 | > 10 | > 10 | N#Cc1cc2c(N)n(-c3ccccc3)nc2nc1N |
| > 10 | > 10 | > 10 | CC(=O)n1nc(N)c2c(-c3ccccc3)c(C#N)c(N)nc21 |
| 11 | 0.41 | 1.5 | N#Cc1c(N)nc2[nH]nc(N)c2c1-c1ccccc1 |

Further lines, the molecule ahead of its results:

| SMILES | IC50 [1] [µM] | IC50 [2] [µM] | IC50 [3] [µM] |
| --- | --- | --- | --- |
| CC(=O)Nc1nc2[nH]nc(NC(C)=O)c2cc1C#N | > 10 | > 10 | > 10 |
| N#Cc1cc2c(N)n[nH]c2nc1N | > 10 | > 10 | > 10 |
| CC(=O)Nc1nc2nn(-c3ccccc3)c(NC(C)=O)c2cc1C#N | > 10 | > 10 | > 10 |
| Cn1nc(N)c2cc(C#N)c(N)nc21 | > 10 | > 10 | > 10 |
| CC(=O)Nc1nn(C)c2nc(N)c(C#N)cc12 | > 10 | > 10 | > 10 |
| COc1nc(NN)c(C#N)c(-c2ccccc2)c1C#N | > 10 | > 10 | > 10 |

Source: ChEMBL document CHEMBL1153477, “Synthesis and biological evaluation of 3,6-diamino-1H-pyrazolo[3,4-b]pyridine derivatives as protein kinase inhibitors” (Bioorg Med Chem Lett, 2009)
